Source: patent US11534410B2, “Amphotericin loaded PEGylated lipid nanoparticles and methods of use” (University of Mississippi, priority 2018, dated 2022)
Values after ≈ are worked out from the molar mass of the structure shown. Where two headings read alike, the source gives them in different places.

How the values were obtained:
[1] = tested on: wild type (WT) Candida albicans (ATCC90028); test: Microdilution (CLSI) and recovery assay, antifungal/fungicidal activity; type: cell-based; settings: for MFC: recovery assay
Experimental: FIG. 5: Antifungal activity of amphotericin B formulations. […] Each formulation was tested at 5.0-0.01 μg/ml with 2-fold dilutions. Color bar represents relative growth. A. Antifungal activity on Day 1 post AmB formulation in wild type (WT) Candida. B. & C. Antifungal activity on Day 10 post AmB formulation in WT and AmB resistant Candida strains, respectively. Each experiment was performed in triplicates.
In vitro fungicidal activity: A microdilution experiment was performed in wild type (WT) Candida albicans (ATCC90028) and Aspergillus fumigatus (ATCC 204305) as per Clinical & Laboratory Standards Institute (CLSI) protocols^37-39. […] Recovery assay was performed for fungicidal activity at both day 1 and day 10 post preparation.

[2] = cited from earlier work
[3] = tested on: AmB resistant Candida strain (ATCC 200955); test: Microdilution and fungicidal assay, AmB resistant strain; type: cell-based, Candida albicans; settings: Day10
Experimental: Each formulation was tested at 5.0-0.01 μg/ml with 2-fold dilutions. […] B. & C. Antifungal activity on Day 10 post AmB formulation in WT and AmB resistant Candida strains, respectively. Each experiment was performed in triplicates.

[4] = Lipid screening: solubility/dispersibility of amphotericin B in lipids; type: physicochemical
Experimental: Lipid screening is a crucial step, in order to select the lipids with the highest drug solubility and/or dispersibility. Amphotericin B (1 mg) was added to the lipid at 75° C., upon stirring at 2000 rpm for 10 mins, and observed with naked eye as well as under the microscope for precipitation/aggregation. Amphotericin B has a relatively higher solubility at elevated temperature in Precirol™ ATO 5 (glyceryl palmitostearate) in comparison with the other lipids, such as Compritol® ATO 888 (glyceryl behenate), stearic acid, glyceryl mono stearate (GMS) and glyceryl di-stearate (Table 1). […] While screening liquid lipids, amphotericin B better dispersed/solubilized in castor oil (Table 1).

[5] = tested on: retinal pigmented epithelial cells (ATCC ARPE-19); type: cell-based
Experimental: In vitro cytotoxicity evaluation: The placebo (no Amphotericin B) formulations PEG-NLC and NLC alone were tested for cytotoxicity towards the retinal pigmented epithelial cells (ATCC ARPE-19) in a concentration range of 0.03%-1%. […] They were not cytotoxic to ARPE-19 cells up to a highest concentration of 30 μg/mL, indicating a high therapeutic index.

[6] = amphotericin B (1 mg) added to the solid lipid at 75° C., 2000 rpm for 10 mins

In the case of `C[C@@H]1[C@H](O)[C@@H](C)/C=C/C=C/C=C/C=C/C=C/C=C/C=C/[C@H](O[C@@H]2O[C@H](C)[C@@H](O)[C@H](N)[C@@H]2O)C[C@@H]2O[C@](O)(C[C@@H](O)C[C@@H](O)[C@H](O)CC[C@@H](O)C[C@@H](O)CC(=O)O[C@H]1C)C[C@H](O)[C@H]2C(=O)O` [AmB, Amphotericin B], the MIC ([1]; Day1 post preparation) was 0.62/0.62 μg/mL, the MFC ([1]; Day1 post preparation) was 1.25/1.25 μg/mL and the MIC ([1]; Day10 post preparation) was 0.62/0.62 μg/mL. The MFC ([1]; Day10 post preparation) was 1.25/1.25 μg/mL, the “log P” value [2] was 0.8 and the “solubility in water, methanol, and ethanol” value [2] was “practically insoluble”. It also gave an MFC [3] of 2.5 µg/mL (≈ 2.71 µM) and an MIC [3] of 2.5 µg/mL (≈ 2.71 µM).
For `CCCCCCCCCCCCCC(=O)OCC(COC(=O)CCCCCCCCCCCCC)OC(=O)CCCCCCCCCCCCC` [Dynasan 114, glyceryl trimyristate], the “Solubility/Dispersion (Solid Lipid)” value [4, 6] was “−”.
With `CCCCCCCCCCCCCCCC(=O)OCC(COC(=O)CCCCCCCCCCCCCCC)OC(=O)CCCCCCCCCCCCCCC` [Dynasan 116, glyceryl tripalmitate] the “Solubility/Dispersion (Solid Lipid)” value [4, 6] was “−”.
For `CCCCCCCCCCCCCCCCCC(=O)OCC(O)CO` (stereo not shown) [GMS, glyceryl mono stearate], the “Solubility/Dispersion (Solid Lipid)” value [4] was “−”.
In the case of `CCCCCCCC/C=C\CCCCCCCC(=O)O` [Oleic acid], the “Solubility/Dispersion (Liquid Lipid)” value [4] was “−”.
For Castor Oil, the “Solubility/Dispersion (Liquid Lipid)” value [4] was “+”.
For Sesame Oil, the “Solubility/Dispersion (Liquid Lipid)” value [4] was “−”.
For Soy bean oil, the “Solubility/Dispersion (Liquid Lipid)” value [4] was “−”.
With benzalkonium chloride the “IC50 (cytotoxicity)” value [5] was 3.9 µg/mL.
